# Results: ChEMBL document CHEMBL5614404, “Optimization of potent, broad-spectrum, and specific anti-influenza compounds targeting RNA polymerase PA-PB1 heterodimerization” (Eur J Med Chem, 2024)
# pEC50, pIC50: −log10 of the molar value.
# Experiments:
# [1] = target: T1, RNA-directed RNA polymerase (Influenza A virus (strain A/Puerto Rico/8/1934 H1N1), UniProt P03428+P03431+P03433); assay: Inhibition of Influenza A virus RdRp transfected in HEK293T cells co-expressing PA/PB1/PB2/NP/firefly luciferase/Renilla luciferase assessed as impaired nuclear import preincubated for 4 hrs followed by medium replacement with compound measured after 20 hrs by minireplicon assay; format: cell-based
# [2] = tested on: Influenza A virus; assay: Antiviral activity against Oseltamivir-resistant Influenza A virus Parma/24/09 (H1N1) infected in MDCK cells incubated for 48 hrs by plaque reduction assay; format: functional, organism-based
# [3] = tested on: Influenza A virus; assay: Antiviral activity against Amantadine/Oseltamivir-resistant Influenza A virus Texas/04/2009 (H1N1) infected in MDCK cells by plaque reduction assay; format: functional, organism-based
# [4] = tested on: Influenza A virus; assay: Antiviral activity against Amantadine/Oseltamivir-resistant Influenza A virus North Carolina/39/2009 (H1N1) infected in MDCK cells by plaque reduction assay; format: functional, organism-based
# [5] = tested on: Influenza A virus; assay: Antiviral activity against Amantadine-resistant/Oseltamivir-sensitive Influenza A virus California/07/2009 (H1N1) infected in MDCK cells by plaque reduction assay; format: functional, organism-based
# [6] = tested on: Influenza A virus; assay: Antiviral activity against Amantadine-resistant/Oseltamivir-sensitive Influenza A virus WSN/1933 (H1N1) infected in MDCK cells by plaque reduction assay; format: functional, organism-based
# [7] = tested on: Influenza A virus; assay: Antiviral activity against Amantadine/Oseltamivir-resistant Influenza A virus Denmark/528/2009 (H1N1) infected in MDCK cells by plaque reduction assay; format: functional, organism-based
# [8] = tested on: Influenza A virus; assay: Antiviral activity against Amantadine-resistant/Oseltamivir-sensitive Influenza A virus Switzerland/9715293/2013 (H3N2) infected in MDCK cells by plaque reduction assay; format: functional, organism-based
# [9] = tested on: Influenza B virus; assay: Antiviral activity against Amantadine-resistant/Oseltamivir-sensitive Influenza B virus Wisconsin/01/2010 infected in MDCK cells by plaque reduction assay; format: functional, organism-based; conditions: Wisconsin/01/2010, MDCK
# [10] = tested on: Influenza A virus; assay: Antiviral activity against Amantadine/Oseltamivir-resistant Influenza A virus Washington/29/2009 (H1N1) infected in MDCK cells by plaque reduction assay; format: functional, organism-based
# [11] = tested on: Influenza A virus; assay: Antiviral activity against Influenza A virus PR/8/34 infected in human A549 cells assessed as reduction in viral progeny preincubated for 1 hr followed by media replacement with compound measured after 23 hrs by virus yeild reduction assay; format: functional, organism-based; conditions: for pEC50: PR/8/34, A549; for Activity: time 24.0 hrs
# [12] = tested on: Influenza A virus; assay: Antiviral activity against Amantadine/Oseltamivir-resistant Influenza A virus Denmark/528/2009 (H1N1) clinical isolate infected in MDCK cells expressing ST6Gal by crystal violet staining based plaque reduction assay; format: functional, organism-based
# [13] = tested on: Influenza A virus; assay: Antiviral activity against Amantadine-resistant Influenza A virus California/07/2009 (H1N1) clinical isolate infected in MDCK cells expressing ST6Gal by crystal violet staining based plaque reduction assay; format: functional, organism-based
# [14] = target: T1, RNA-directed RNA polymerase; assay: Inhibition of Influenza A virus RdRp transfected in HEK293T cells co-expressing PA/PB1/PB2/NP/firefly luciferase/Renilla luciferase preincubated for 4 hrs followed by medium replacement with compound measured after 20 hrs by minireplicon assay; format: cell-based
structure (smiles),measurement,setting,value
NC(=O)c1ncn([C@@H]2O[C@H](CO)[C@@H](O)[C@H]2O)n1 [RIBAVIRIN],pEC50,[1],4.66
same,pEC50,[2],4.66
O=C1C(c2ncc([N+](=O)[O-])s2)CC[C@@H]2CCCC[C@@H]12 (some centres not stated),pEC50,[3],6.03
same,pEC50,[4],6.03
same,pEC50,[5],6.03
same,pEC50,[6],6.03
same,pEC50,[7],6.03
same,pEC50,[8],6.03
same,pEC50,[9],6.03
same,pEC50,[10],6.03
O=C(Nc1sc2c(c1C(=O)Nc1ccccc1O)CCCCC2)c1ccc([N+](=O)[O-])cc1O,pEC50,[1],6.89
same,pEC50,[11],7.06
same,Activity,[11],Dose-Dependent Effect
same,pEC50,[2],7.09
NC(=O)c1nc(F)cnc1O,pEC50,[11],5.10
C[C@@H](c1ccccc1)n1nnnc1[C@H](c1ccsc1)N1CCC(n2c(=O)[nH]c3ccccc32)CC1,pEC50,[12],6.22
same,pEC50,[13],6.22
N#Cc1ccc(C(=O)Nc2sc3c(c2C(=O)Nc2ccc(C(F)(F)F)cc2)CCCCC3)cc1,pEC50,[1],< 5.00
O=C(Nc1sc2c(c1C(=O)Nc1ccccn1)CCCCC2)c1ccccc1O,pIC50,[14],5.55
O=C(Nc1sc2c(c1C(=O)Nc1ccc(F)cc1)CCCCC2)c1ccccc1O,pIC50,[14],6.33
O=C(Nc1sc2c(c1C(=O)Nc1ccccn1)CCCCC2)c1ccc([N+](=O)[O-])cc1,pIC50,[14],6.57
N#Cc1ccc(C(=O)Nc2sc3c(c2C(=O)Nc2ccccc2O)CCCCC3)cc1,pEC50,[1],7.49
same,pEC50,[11],6.85
same,Activity,[11],Dose-Dependent Effect
same,pEC50,[2],6.55
O=C(Nc1sc2c(c1C(=O)Nc1nccs1)CCCCC2)c1ccccc1O,pIC50,[14],6.48
O=C(Nc1sc2c(c1C(=O)Nc1ccc(Cl)cc1)CCCCC2)c1ccccc1O,pIC50,[14],6.00
